Experimental data: patent publication US12128012B2, “Ketamine treatment for amyotrophic lateral sclerosis” (University of Kansas, priority 2020, dated 2024)

Experiments:
Type in all cases: in vivo
[1] = tested on: SOD1-G93A mouse model of ALS; experiment: Body weight in SOD1-G93A mice under ketamine
Text: (§1) Testing can be performed in SOD1-G93A mice as follows. Body weight and grip strength during a hanging wire test can be measured 3 days a week beginning at 90 days of age (presymptomatic). Drug injections can be made immediately after motor testing. Mice can be tested until they reach end-stage as defined by loss of righting reflex for 30 seconds or if they are found dead in their cage. At death, the muscles (soleus, tibialis anterior, and diaphragm) and brains can be harvested for histological analyses. Comparisons of neuromuscular junction innervation and myosin heavy chain isoforms can be made between the treatment groups. Experiments can determine cortical motor neuronal integrity using standard histological methods.
(§2) Experiments were performed to determine the effects of daily sub-anesthetic doses (e.g., less than 100 mg/kg) of ketamine on the SOD1-G93A mouse model of ALS. The method included administering two doses of ketamine (e.g., 10 mg/kg and 30 mg/kg) and a saline vehicle to three groups of SOD1-G93A mice per day for 5 days per week beginning at 90 days of age. The method included measuring body weight, grip strength, and survival.
The three groups (e.g., 12 mice per group with intraperitoneal injection): vehicle (e.g., 0), 10 mg/kg (e.g., 10), and 30 mg/kg (e.g., 30) are shown (p=0.06). […] As such, the 10 mg/kg dosage may be useful for ALS patients. […] Accordingly, increasing the amount of ketamine administered may increase the effects described herein. Any increase in life (e.g., probability of survival) can be beneficial, which may be accomplished by treatment with the ketamine compound.

[2] = tested on: SOD1-G93A mouse model of ALS; experiment: Grip strength, hanging wire test, SOD1-G93A mice; conditions: 10 mg/kg and 30 mg/kg vs saline vehicle, 5 days per week from 90 days of age; data not shown
Text: as §1, §2

[3] = tested on: SOD1-G93A mouse model of ALS; experiment: Survival (day of death) in SOD1-G93A mice
Text: as §1, §2
As shown, treatment with the ketamine compound appears to provide a higher probability of survival for a longer period of time for both the 10 mg/kg and 30 mg/kg dosages (p=0.06; FIG. 2). […]

[4] = tested on: SOD1-G93A mouse model of ALS; experiment: Latency between 20% loss of body weight and death in SOD1-G93A mice; conditions: for latency between 20% loss of body weight and death: FIG. 3 (vehicle about 2 days)
Protocol: as §2
Additionally, the latency in days between the day in which each mouse reached 80% of its initial body weight (i.e., 20% reduction) and the day of death as defined above was calculated. […] Accordingly, higher dosages may still provide for longer latency of life, or longer life expectancy.

SMILES: CNC1(c2ccccc2Cl)CCCCC1=O (stereo not shown) [ketamine, 2-(2-chlorophenyl)-2-(methylamino)cyclohexan-1-one]
- effects on body weight ([1]; 10 mg/kg and 30 mg/kg vs saline vehicle, 5 days per week from 90 days of age, data not shown): no significant effects
- probability of survival curve for day body weight fell below 80% ([1]; 10 mg/kg intraperitoneal vs vehicle, FIG. 1): improvement in the probability of survival
- loss of body weight (muscle mass), trend in survival curve ([1]; 30 mg/kg intraperitoneal vs 10 mg/kg or without ketamine, FIG. 1): delays loss of body weight (muscle mass) for a longer period of time
- survival analysis: day in which body weight fell below 80%, difference between the groups ([1]; vehicle, 10 mg/kg, 30 mg/kg, intraperitoneal, 12 mice per group, FIG. 1, p=0.06): no significant difference
- effects on grip strength using the hanging wire test [2]: no significant effects
- probability of survival (day of death: loss of righting reflex for 30 seconds or found dead) ([3]; 10 mg/kg vs vehicle, FIG. 2, overall p=0.06): some improvement over the vehicle
- probability of survival (day of death: loss of righting reflex for 30 seconds or found dead) ([3]; 30 mg/kg vs vehicle, FIG. 2, p<0.05): survived significantly longer than the vehicle-treated group
- longer life expectancy than no treatment ([4]; 10 mg/kg vs vehicle): about 4 days
- latency between 20% loss of body weight and death ([4]; 10 mg/kg): about 6 days
- longer life expectancy over the 10 mg/kg treatment ([4]; 30 mg/kg vs 10 mg/kg): about 4 days
- longer life expectancy than no treatment ([4]; 30 mg/kg vs vehicle): about 8 days
- latency between 20% loss of body weight and death ([4]; 30 mg/kg): about 10 days
- latency between 20% loss of body weight and death, effect of dose ([4]; vehicle, 10 and 30 mg/kg, ANOVA p<0.05, FIG. 3): statistically significant dose-dependent increase
